Laboratory results: PMC6297231 (Nature Communications, 2018)

Assays:
Test in all cases: cells
[1] = tested on: OCILY19; conditions: Homo sapiens, OCI-LY19, 6 h, read-out: AZD5991 6h EC50
Method: (§1) Cells were plated at 3000 cells/well in 384-well white plates in corresponding cell growth media. […] Caspase-3/7 activation was subsequently determined using a Caspase-Glo 3/7 Reagent (Promega) and viability was assayed using the CellTiter-Glo Reagent (Promega) as described in manufacturer’s instructions. Dose–response curves for caspase-3/7 activation and viability were plotted and analyzed (including EC50 and GI50 determination) using GraphPad Prism. Percentage of caspase activation was calculated against the maximum caspase activation value (100%) obtained with a proprietary cell kill control.

[2] = tested on: SKMEL3; conditions: Homo sapiens, SK-MEL3, 6 h, read-out: AZD5991 6h EC50
Method: as §1

[3] = tested on: GRANTA519; conditions: Homo sapiens, Granta-519, 6 h, read-out: AZD5991 6h EC50
Method: as §1

[4] = tested on: Colo205; conditions: Homo sapiens, COLO 205, 6 h, read-out: AZD5991 6h EC50
Method: as §1

[5] = tested on: DMS79; conditions: Homo sapiens, DMS-79, 6 h, read-out: AZD5991 6h EC50
Method: as §1

[6] = tested on: JVM2; conditions: Homo sapiens, JVM-2, 6 h, read-out: AZD5991 6h EC50
Method: as §1

[7] = tested on: GIST 430/654; conditions: GIST-430/654, 6 h, read-out: AZD5991 6h EC50
Method: as §1

[8] = tested on: G361; conditions: Homo sapiens, G-361, 6 h, read-out: AZD5991 6h EC50
Method: as §1

[9] = tested on: Kasumi1; conditions: Homo sapiens, Kasumi 1, 6 h, read-out: AZD5991 6h EC50
Method: as §1

[10] = tested on: MDAMB231; conditions: Homo sapiens, MDA-MB-231, 6 h, read-out: AZD5991 6h EC50
Method: as §1

[11] = tested on: A253; conditions: Homo sapiens, A253, 6 h, read-out: AZD5991 6h EC50
Method: as §1

[12] = tested on: LUDLU1; conditions: LUDLU-1, 6 h, read-out: AZD5991 6h EC50
Method: as §1

[13] = tested on: MM1S; conditions: Homo sapiens, MM1.S, 6 h, read-out: AZD5991 6h EC50
Method: as §1

[14] = tested on: H82; conditions: Homo sapiens, NCI-H82, 6 h, read-out: AZD5991 6h EC50
Method: as §1

[15] = tested on: BT549; conditions: Homo sapiens, BT-549, 6 h, read-out: AZD5991 6h EC50
Method: as §1

[16] = tested on: RI1; conditions: Ri-1, 6 h, read-out: AZD5991 6h EC50
Method: as §1

[17] = tested on: H209; conditions: Homo sapiens, NCI-H209, 6 h, read-out: AZD5991 6h EC50
Method: as §1

[18] = tested on: H2122; conditions: Homo sapiens, NCI-H2122, 6 h, read-out: AZD5991 6h EC50
Method: as §1

[19] = tested on: RT4; conditions: Homo sapiens, RT-4, 6 h, read-out: AZD5991 6h EC50
Method: as §1

[20] = tested on: OVCAR3; conditions: Homo sapiens, OVCAR-3, 6 h, read-out: AZD5991 6h EC50
Method: as §1

[21] = tested on: DMS53; conditions: Homo sapiens, DMS-53, 6 h, read-out: AZD5991 6h EC50
Method: as §1

[22] = tested on: SKMEL24; conditions: Homo sapiens, SK-MEL-24, 6 h, read-out: AZD5991 6h EC50
Method: as §1

[23] = tested on: MONOMAC6; conditions: Homo sapiens, MONO-MAC-6, 6 h, read-out: AZD5991 6h EC50
Method: as §1

[24] = tested on: A101D; conditions: Homo sapiens, 6 h, read-out: AZD5991 6h EC50
Method: as §1

[25] = tested on: MUTZ3; conditions: 6 h, read-out: AZD5991 6h EC50
Method: as §1

[26] = tested on: U2OS; conditions: Homo sapiens, 6 h, read-out: AZD5991 6h EC50
Method: as §1

[27] = tested on: LK2; conditions: Homo sapiens, LK-2, 6 h, read-out: AZD5991 6h EC50
Method: as §1

[28] = tested on: Z-138; conditions: Homo sapiens, Z-138, 6 h, read-out: AZD5991 6h EC50
Method: as §1

[29] = tested on: Sudhl8; conditions: Homo sapiens, SU-DHL-8, 6 h, read-out: AZD5991 6h EC50
Method: as §1

[30] = tested on: FaDu; conditions: Homo sapiens, 6 h, read-out: AZD5991 6h EC50
Method: as §1

[31] = tested on: H196; conditions: NCI-H196, 6 h, read-out: AZD5991 6h EC50
Method: as §1

[32] = tested on: Toledo; conditions: Homo sapiens, 6 h, read-out: AZD5991 6h EC50
Method: as §1

[33] = tested on: SBC5; conditions: Homo sapiens, SBC-5, 6 h, read-out: AZD5991 6h EC50
Method: as §1

[34] = tested on: OCILY3; conditions: Homo sapiens, OCI-Ly3, 6 h, read-out: AZD5991 6h EC50
Method: as §1

[35] = tested on: HCC1954; conditions: Homo sapiens, HCC1954, 6 h, read-out: AZD5991 6h EC50
Method: as §1

Cc1c2c(nn1C)CSCc1cc(n(C)n1)CSc1cc(c3ccccc3c1)OCCCc1c(C(=O)O)n(C)c3c-2c(Cl)ccc13 (atropisomer, axis not shown; (Ra)) [(Ra)-7] was tested, and the EC50 [1] was 188 nM, the EC50 [2] was greater than 30000 nM and the EC50 [3] was greater than 30000 nM. It also gave an EC50 [4] of 121 nM, an EC50 [5] greater than 30000 nM and an EC50 [6] of 1030 nM. It also gave an EC50 [7] of 18600 nM, an EC50 [8] of 2440 nM and an EC50 [9] of 297 nM. It also gave an EC50 [10] greater than 30000 nM, an EC50 [11] greater than 30000 nM and an EC50 [12] of 1890 nM. For the same compound, the EC50 [13] was 3600 nM, the EC50 [14] was 201 nM and the EC50 [15] was 1780 nM. It also gave an EC50 [16] greater than 30000 nM, an EC50 [17] greater than 30000 nM and an EC50 [18] of 15200 nM. For the same compound, the EC50 [19] was 18100 nM, the EC50 [20] was greater than 30000 nM and the EC50 [21] was greater than 30000 nM. It also gave an EC50 [22] greater than 30000 nM, an EC50 [23] of 268 nM and an EC50 [24] of 1520 nM. The EC50 [25] was 26 nM, the EC50 [26] was greater than 30000 nM and the EC50 [27] was greater than 30000 nM. The EC50 [28] was greater than 30000 nM, the EC50 [29] was 595 nM and the EC50 [30] was 23300 nM. It also gave an EC50 [31] greater than 30000 nM, an EC50 [32] of 1260 nM and an EC50 [33] of 1120 nM. For the same compound, the EC50 [34] was greater than 30000 nM and the EC50 [35] was 682 nM.
